Consider 30 molecules from patent US20240140931A1, “TRICYCLIC COMPOUNDS AND USES THEREOF” (HUTCHMED LIMITED, priority 2021, published 2024).

For test [1], the system named is Miapaca2 3D spheroids. The test can be described thus: Assay of cell proliferation on Miapaca2 3D spheroids. It is filed as cell-based. The settings on record: CellTiter-Glo 3D, 5 days treatment. On the procedure: Example 4 Assay of Cell Proliferation on Miapaca2 3D Spheroids
1. Reagents and Materials • CellTiter-Glo® 3D Cell Viability Assay Kit: Promega, Cat #G9683; • CellCarrier Spheroid ULA 96-well plate: Corning, Cat #4515; • Instrument: Envision, Perkinelmer; • Cell line: Miapaca2, ATCC, Cat #CRL-1420.
2. Preparation of Reaction Solutions • The test compound was dissolved in DMSO and diluted with DMSO to 3000.0 μM, and the compound was further 3-fold diluted with DMSO to: 1000.0, 333.3, 111.1, 37.0, 12.3, 4.1, and 1.4 μM. Then 2 μL of the compound at different dilution concentrations was added to 198 μL of a 1640 medium to prepare a 10× test compound, wherein DMSO was at the concentration of 1% (DMSO was at the final concentration of 0.1%).
3. Experimental Methods • Day0: Digest cells and count cell numbers. Miapaca2 cells were inoculated into a spheroid ULA 96-well plate at a density of 300 cells/well at 100 μL/well and cultured in a cell incubator at 5% CO2 and 37° C. • Day2: The cell spheroids formed at day2. Add 10 μL of 10× test compounds to the 96-well plate. To the cell positive control well was added 10 μL of 1% DMSO 1640 medium. Incubate the cell spheroids in a cell incubator at 5% CO2 and 37° C. for additional 5 days. • Cell viability assay: Add 50 μL of CellTiter-Glo reagent to each well, place the plate in a microplate shaker, and lysis under shaking at 900 rpm at room temperature for 5 minutes. Then incubate the plate at room temperature in the dark for 30 minutes. • The luminescene of each well was detected on Envision2104.
Cell Survial %=(Lum(d7 treatment)−Lum(d2 cell))/(Lum(d7 cell)−Lum(d2 cell))×100
Wherein: • Lum(d7 treatment) refers to the luminescene of the test compound treated cells on day7; • Lum(d2 cell) refers to the luminescene of the 0.1% DMSO treated Miapaca2 cells on day2; • Lum(d7 cell) refers to the luminescene of the 0.1% DMSO treated Miapaca2 cells on day7. • IC50 values were calculated following formula 205: y=A+((B−A)/(1+((C/X)^D))), by using the XL-Fit 5.0 software.
Background: Cellular ATP, detected with luciferase, serves as a proxy for viable cell number.

Test [2] concerns pERK1/2 (Thr202/Tyr204) in Miapaca2 cells. The test can be described thus: Assay of intracellular pERK1/2 (Thr202/Tyr204) phosphorylation. It is filed as cell-based. The settings on record: pERK1/2 (Thr202/Tyr204) HTRF. Put shortly:
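Miapaca2 cells treated 2 h at 37 °C with compound (3-fold series; final DMSO 0.5%), then lysed 1 h. pERK1/2 (Thr202/Tyr204) detected by HTRF (665/615 nm ratio) after 2 h at 25 °C; normalized to cell-free lysis buffer and DMSO-treated cell controls; IC50 by four-parameter fit.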

The target in test [3] is Human full-length SHP2 recombinant protein (Homo sapiens (Human), UniProt Q06124). The test can be described thus: Assay of full-length SHP2 phosphatase activity. It is filed as biochemical. The settings on record: DiFMUP substrate, with activating peptide. Put shortly: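 Full-length human SHP2 preincubated 30 min at RT with activating peptide and compound (1% DMSO final). DiFMUP substrate added, reaction 60 min at 25 °C in dark. Fluorescence at ex 355/em 460 nm; IC50 from 4-parameter fit against enzyme-free and vehicle controls.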

Setting [4] is: Homo sapiens, MIA PaCa-2, 120 h.

Chain of Human full-length SHP2 recombinant protein (Q06124 whole entry): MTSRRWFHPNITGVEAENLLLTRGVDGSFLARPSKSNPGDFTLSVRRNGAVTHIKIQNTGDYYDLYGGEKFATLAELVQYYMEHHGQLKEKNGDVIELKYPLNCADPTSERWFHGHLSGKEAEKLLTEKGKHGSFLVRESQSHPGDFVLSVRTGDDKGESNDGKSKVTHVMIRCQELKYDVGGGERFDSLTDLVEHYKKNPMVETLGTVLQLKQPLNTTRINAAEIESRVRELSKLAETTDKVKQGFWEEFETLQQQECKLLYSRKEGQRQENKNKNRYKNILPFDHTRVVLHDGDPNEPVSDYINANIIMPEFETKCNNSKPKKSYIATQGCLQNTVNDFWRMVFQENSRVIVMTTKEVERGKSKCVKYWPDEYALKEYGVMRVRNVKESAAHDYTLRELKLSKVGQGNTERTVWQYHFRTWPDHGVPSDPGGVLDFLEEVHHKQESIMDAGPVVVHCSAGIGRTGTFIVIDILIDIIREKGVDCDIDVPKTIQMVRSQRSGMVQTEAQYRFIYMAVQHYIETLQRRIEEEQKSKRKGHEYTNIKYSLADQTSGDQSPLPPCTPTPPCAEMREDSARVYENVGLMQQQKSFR

What is called IC50 is the concentration that inhibits the measured activity by half. For `CC#Cc1ccc2c(c1)[C@@H](N)C1(CCN(c3cc(=O)n(-c4ccc(F)c(F)c4Cl)c(C)n3)CC1)C2` (atropisomer, axis not shown) [Compound 217], the IC50 in test [1] (setting [4]) came out at 62 nM; in test [2] (2 hours) it was 49 nM; in test [3] it was 1 nM.
Consider `CNC(=O)C#Cc1ccc2c(c1)[C@@H](N)C1(CCN(c3nc(N)c(Sc4ccnc(C)c4Cl)nc3C)CC1)C2` [Compound 189], for which the half-maximal inhibitory concentration (IC50) in test [1] (setting [4]) amounted to 15 nM; in test [2] (Homo sapiens, MIA PaCa-2, 2 h), 7 nM; in test [3], 1 nM.
Taken in the same sequence, the figures for `CNC(=O)C#Cc1ccc2c(c1)[C@@H](N)C1(CCN(c3cnc(Sc4ccnc(N)c4F)cn3)CC1)C2` [Compound 265] were 0.4 nM, 0.9 nM and 0.4 nM.
The matching figures for `COCC#Cc1ccc2c(c1)[C@@H](N)C1(CCN(c3ncc(Sc4ccnc(N)c4Cl)c4ncnn34)CC1)C2` [Compound 148]: 47 nM, 13 nM and 4 nM.
Taken in the same sequence, the figures for `CCNC(=O)C#Cc1ccc2c(c1)[C@@H](N)C1(CCN(c3ncc(Sc4ccnc(N)c4Cl)nc3C#N)CC1)C2` [Compound 278] were 16 nM, 34 nM and 5 nM.
As to `C#Cc1ccc2c(c1)[C@@H](N)C1(CCN(c3cc(=O)n(-c4ccc(C#N)c(Cl)c4Cl)c(C)n3)CC1)C2` (atropisomer, axis not shown) [Compound 193], the IC50 in test [1] worked out at 90 nM; in test [2] (2 hours), 24 nM; in test [3] it was 1 nM.
Consider `CNC(=O)C#Cc1ccc2c(c1)[C@@H](N)C1(CCN(c3cc(=O)n(-c4cccc(OC)c4Cl)c(C)n3)CC1)C2` (atropisomer, axis not shown) [Compound 182], for which the IC50 in test [1] (setting [4]) is 18 nM; in test [2] (2 hours), 23 nM; in test [3], 1 nM.
Turning to `C#Cc1ccc2c(c1)[C@@H](N)C1(CCN(c3ncc(Sc4ccnc(C)n4)n4nccc34)CC1)C2` [Compound 178], the IC50 in test [1] (setting [4]) worked out at 41 nM; in test [2] (Homo sapiens, MIA PaCa-2, 2 h), 48 nM; in test [3], 2 nM.
The matching figures for `Cc1nc(Sc2ccnc(N)c2F)c(N)nc1N1CCC2(CC1)Cc1ccc(C#CC(N)=O)cc1[C@H]2N` [Compound 274]: 3 nM, 6 nM and 1 nM.
`COCCNC(=O)C#Cc1ccc2c(c1)[C@@H](N)C1(CCN(c3cnc(Sc4ccnc(N)c4Cl)cn3)CC1)C2` [Compound 297]: the IC50 in test [1] (setting [4]) was 0.3 nM; in test [2] (Homo sapiens, MIA PaCa-2, 2 h) it was 1 nM; in test [3], 0.3 nM.
With `CC#Cc1ccc2c(c1)[C@@H](N)C1(CCN(c3cc(=O)n(-c4ccc(F)c(OC)c4Cl)c(C)n3)CC1)C2` (atropisomer, axis not shown) [Compound 207], the IC50 in test [1] (setting [4]) came to 35 nM; in test [2] (2 hours) it was 9 nM; in test [3] it was 2 nM.
For `COCC#Cc1cc(F)c2c(c1)[C@@H](N)C1(CCN(c3ncc(Sc4ccnc(N)n4)c4nccn34)CC1)C2` [Compound 171], the IC50 in test [1] (setting [4]) was determined as 39 nM; in test [2] (Homo sapiens, MIA PaCa-2, 2 h), 38 nM; in test [3], 6 nM.
The matching figures for `CNC(=O)C#Cc1ccc2c(c1)[C@@H](N)C1(CCN(c3nc(N)c(Sc4ccnc(N)n4)nc3C)CC1)C2` [Compound 216]: 28 nM, 45 nM and 1 nM.
The matching figures for `CCNC(=O)C#Cc1ccc2c(c1)[C@@H](N)C1(CCN(c3cnc(Sc4cccnc4C(F)(F)F)c(N)n3)CC1)C2` [Compound 235]: 0.9 nM, 9 nM and 1.7 nM.
Regarding `C#Cc1ccc2c(c1)[C@@H](N)C1(CCN(c3cc(=O)n(-c4ccc(C#N)c(OC)c4Cl)c(C)n3)CC1)C2` [Compound 183], the IC50 was 68 nM in test [1] (setting [4]), 50 nM in test [2] (2 hours) and 2 nM in test [3].
Turning to `CCNC(=O)C#Cc1ccc2c(c1)[C@@H](N)C1(CCN(c3cnc(Sc4cccnc4Cl)c(N)n3)CC1)C2` [Compound 238], the IC50 in test [1] (setting [4]) worked out at 1 nM; in test [2] (Homo sapiens, MIA PaCa-2, 2 h) it was 4 nM; in test [3], 1.3 nM.
Taken in the same sequence, the figures for `CCNC(=O)C#Cc1ccc2c(c1)[C@@H](N)C1(CCN(c3cnc(N4CCCc5ncccc54)cn3)CC1)C2` [Compound 243, (S)-3-(1-amino-1′-(5-(3,4-dihydro-1,5-naphthyridin-1(2H)-yl)pyrazin-2-yl)-1,3-dihydrospiro[indene-2,4′-piperidin]-6-yl)-N-ethylpropiolamide] were 15 nM, 19 nM and 0.7 nM.
Taken in the same sequence, the figures for `Cc1nc(N2CCC3(CC2)Cc2ccc(C#CC(N)=O)cc2[C@H]3N)cnc1Sc1cc(N)nc(Cl)c1Cl` [Compound 280] were 35 nM, 35 nM and 11 nM.
The matching figures for `C#Cc1ccc2c(c1)[C@@H](N)C1(CCN(c3ncc(Sc4ccnc(N)c4Cl)c(=O)n3CC)CC1)C2` [Compound 294]: 9 nM, 18 nM and 1 nM.
Consider `CCNC(=O)C#Cc1ccc2c(c1)[C@@H](N)C1(CCN(c3nc(N)c(Sc4ccnc(N)c4Cl)nc3C)CC1)C2` [Compound 219], for which the IC50 in test [1] (setting [4]) came out at 6 nM; in test [2] (Homo sapiens, MIA PaCa-2, 2 h), 7 nM; in test [3] it was 3 nM.
The matching figures for `Cc1c(N2CCC3(CC2)Cc2ccc(C#CC(=O)N(C)C)cc2[C@H]3N)nc(C)n(-c2cccc(Cl)c2Cl)c1=O` [Compound 195]: 30 nM, 11 nM and 1 nM.
Turning to `CNC(=O)C#Cc1ccc2c(c1)[C@@H](N)C1(CCN(c3cc(=O)n(-c4ccc(F)c(F)c4Cl)c(C)n3)CC1)C2` [Compound 202], the half-maximal inhibitory concentration (IC50) in test [1] (setting [4]) was determined as 46 nM; in test [2] (2 hours), 40 nM; in test [3] it was 1 nM.
For `COCC#Cc1cc(F)c2c(c1)[C@@H](N)C1(CCN(c3nc(C)n(-c4cccc(Cl)c4Cl)c(=O)c3C)CC1)C2` [Compound 160], the concentration for half-maximal inhibition (IC50) worked out at 41 nM in test [1] (setting [4]); 56 nM in test [2] (Homo sapiens, MIA PaCa-2, 2 h); 13 nM in test [3].
Taken in the same sequence, the figures for `CCNC(=O)C#Cc1ccc2c(c1)[C@@H](N)C1(CCN(c3ncc(Sc4ccnc(N)c4Cl)nc3C)CC1)C2` [Compound 290] were 0.3 nM, 4 nM and 1 nM.
Taken in the same sequence, the figures for `C#Cc1ccc2c(c1)[C@@H](N)C1(CCN(c3nc(N)c(Sc4ccnc(N)c4Cl)nc3C)CC1)C2` [Compound 241] were 3.8 nM, 10 nM and 1.2 nM.
Taken in the same sequence, the figures for `CCNC(=O)C#Cc1ccc2c(c1)[C@@H](N)C1(CCN(c3cnc(N4CCCc5ncccc54)nn3)CC1)C2` [Compound 244] were 41 nM, 139 nM and 11 nM.
As for `CCNC(=O)C#Cc1ccc2c(c1)[C@@H](N)C1(CCN(c3cnc(Sc4cc(N)ncc4Cl)c(N)n3)CC1)C2` [Compound 247], the IC50 was 1 nM in test [1] (setting [4]); 3 nM in test [2] (Homo sapiens, MIA PaCa-2, 2 h); 1 nM in test [3].
As for `C#Cc1ccc2c(c1)[C@@H](N)C1(CCN(c3nc(C)n(-c4cccc(Cl)c4Cl)c(=O)c3F)CC1)C2` [Compound 165], the IC50 in test [1] (setting [4]) was determined as 71 nM; in test [2] (Homo sapiens, MIA PaCa-2, 2 h) it was 39 nM; in test [3], 6 nM.
Taken in the same sequence, the figures for `C#Cc1cc(F)c2c(c1)[C@@H](N)C1(CCN(c3cc(=O)n(-c4cccc(Cl)c4Cl)c(C)n3)CC1)C2` [Compound 135] were 95 nM, 56 nM and 5 nM.
Consider `C#Cc1ccc2c(c1)[C@@H](N)C1(CCN(c3cc(=O)n(-c4cccc(C#N)c4Cl)c(C)n3)CC1)C2` [Compound 268], for which the figures for the IC50 in test [1] (setting [4]) and in test [2] (2 hours) were 17 nM and 63 nM, respectively.
